Results taken from patent US20250339391A1, “METHODS FOR EFFECTIVE MANAGEMENT OF PAIN” (South Rampart Pharma, Inc., priority 2024, published 2025).
“Also recorded” adds a separate entry of the source.

Tests used:
[1] = Genotoxicity battery, weight of the evidence; conditions: Ames, chromosomal aberration, micronucleus and Comet assays
Experimental: To transition SRP-001 into the clinic for human use, a full set of in vivo and in vitro genotoxicity studies were performed to assess the potential genotoxicity of SRP-001.
(§1) To further evaluate the potential genotoxicity of SRP-001 and determine the validity of the in vitro findings, a second in vivo assay, a GLP-compliant Comet assay, was conducted in accordance with ICH S2(R1) Guidance on Genotoxicity Testing and Data Interpretation for Pharmaceuticals Intended for Human Use. […] SRP-001 was tested to evaluate its mutagenic potential by measuring its ability to induce reverse mutations at selected loci of several strains of Salmonella typhimurium (S. typhimurium) and at the tryptophan locus of Escherichia coli (E. coli) strain WP2 uvrA in the presence and absence of an exogenous metabolic activation system (Bioreliance, Rockville, MD USA). Dimethyl sulfoxide (10% DMSO) was used as the vehicle. The dose levels tested in the preliminary toxicity assay were 6.67, 10.0, 33.3, 66.7, 100, 333, 667, 1000, 3333, and 5000 μg per plate. No precipitate was observed. […] The dose levels tested in the mutagenicity assay were 100, 333, 667, 1000, 3333, and 5000 μg per plate. […] In the preliminary toxicity assay, the doses tested ranged from 0.0405 to 405 μg/mL (1 mM), which was the limit dose for this assay (Bioreliance, Rockville, MD USA).

[2] = tested on: Chinese Hamster Ovary Cells; experiment: In vitro mammalian chromosomal aberration assay; assay type: cell-based; conditions: for doses with cytotoxicity: non-activated 20-h exposure
Experimental: as §1
The doses selected for evaluation of chromosome aberrations were 150, 300, and 405 μg/mL for the non-activated and S9-activated 4-h exposure groups; and 10, 40, and 80 μg/mL for the non-activated 20-h exposure group. […] The induction of structural aberrations was outside the 95% control limit of the historical negative control data of 0.00% to 2.79%. […] However, the induction of structural aberrations was within the 95% control limit of the historical negative control data of 0.00% to 4.28%. […] The induction of structural aberrations was outside the 95% control limit of the historical negative control data of 0.00% to 2.68%.

[3] = tested on: male Sprague-Dawley rats; experiment: Neuropharmacological profile (modified Irwin/FOB) in Sprague-Dawley rats (GLP); assay type: in vivo, rat
Experimental: Any potential neuropharmacological effects of orally administered SRP-001 in rats were assessed in three groups of eight male Sprague-Dawley rats. Each was orally administered SRP-001 at a single dose of 220, 440, or 660 mg/kg. Vehicle (10% labrasol: 10% DMSO: 80% PEG400) was administered to an additional group of eight rats. The dose volume was 10 mL/kg. […] All observations were made at ±5 min for the observations through 1 h post-dose and ±15 min for the later observations. Body temperature was measured 1 h following dose administration.

[4] = tested on: Beagle dogs; experiment: Dose-range-finding oral toxicity study in Beagle dogs, Phase I (non-GLP); assay type: in vivo, dog
Experimental: 3) A Dose-Range-Finding and 7-day Repeat-Dose Oral Toxicity Study of SRP-001 in Beagle dogs (Non-GLP) Two beagle dogs (1/sex) were administered 30, 100, 250, or 500 mg/kg SRP-001. […] After a period of at least 2 d (minimum of 44 h) following the previous dose of test article, additional dose levels of SRP-001, as indicated above, were administered by oral gavage to the same 2 dogs (1 male and 1 female). Each dose was based on the dog's most recent body weight. Mortality/morbidity was observed twice daily and once prior to scheduled sacrifice. Body weights were recorded prior to randomization/selection, prior to each dose administration, and prior to scheduled sacrifice. At scheduled sacrifice, a gross necropsy was performed, and the tissues were appropriately discarded. […] Doses for Phase II of the study were set based on Phase I results. The actual dose amounts selected for Phase II of the study were 0, 30, 100, or 300 mg/kg/d of SRP-001. These doses were administered once daily for seven consecutive days to 1 Beagle dog/sex/dose.

[5] = tested on: Salmonella typhimurium strains and Escherichia coli strain WP2 uvrA; experiment: Ames reverse mutation assay; assay type: cell-based
Experimental: as §1

[6] = tested on: conscious telemetered beagle dogs; experiment: Cardiovascular effect in conscious telemetered beagle dogs (GLP); assay type: in vivo, dog
Experimental: The effects of SRP-001 on hERG current amplitude at physiologic temperatures were evaluated over a nominal concentration range of 0.1 μM to 100M. A vehicle group (10% DMSO) was included in the study for comparison, and dofetilide (10 nM) was used as a reference substance. The vehicle and positive controls indicated appropriate sensitivity of the test systems. […] Next, the potential acute effects of oral SRP-001 on cardiovascular function in conscious telemetered beagle dogs was done using a Latin Square design; 4 male naïve beagle dogs each received vehicle (10% DMSO: 10% labrasol: 80% PEG400) and three doses (30, 90, and 150 mg/kg) of SRP-001 nanosuspension by oral gavage. […] A single dose was administered on the day of dosing, and a washout period of seven days was allowed between doses. One-min means of hemodynamic parameters, as well as ECG parameters and body temperature, were measured for a period of at least 24 h. One-min tracings of the ECGs were obtained at 15 min prior to dosing and at 30 min, 1, 2, 4, 8, 12, and 24 h post-dose. Qualitative evaluation of the ECGs was done by a board-certified veterinary cardiologist.

[7] = tested on: male Sprague-Dawley rats; conditions: rat, in vivo
Experimental: 1) Dose-Range-Finding Oral Toxicity Study with SRP-001 in Sprague-Dawley Rats (non-GLP) As part of a two-phase study, the maximum tolerated dose (MTD) of SRP-001 when administered via gavage once to Sprague-Dawley Rats using an ascending/descending dose design (Calvert Labs/Altasciences, Scott Township, PA USA). A total of 12 male Sprague-Dawley rats (3/dose group), approximately 8-9 weeks old and weighing 245-307 g, were administered single doses of […], 1000, 1500, or 2000 mg/kg SRP-001. Mortality/morbidity was performed twice daily and once prior to scheduled sacrifice. Clinical observations were evaluated prior to each dose administration and approximately 1-3 h post-dose, once daily on non-dosing days and additionally as needed. Body weights were recorded for animals in Groups 1-4 prior to randomization/selection, each dose administration, and scheduled sacrifice on day 3. Food consumption was recorded on day 3. […] Based on the results of this study, doses for the second phase were selected.

CCN(CC)C(=O)c1ccccc1S(=O)(=O)NCC(=O)Nc1ccc(O)cc1 [SRP-001, N,N-diethyl-2-[[2-(4-hydroxyanilino)-2-oxo-ethyl]sulfamoyl]benzamide]
genotoxicity, overall conclusion [1]: not genotoxic; also recorded: negative for genotoxicity
induction of numerical chromosomal aberrations, conclusion [2]: negative for the induction of numerical chromosomal aberrations
structural aberrations ([2]; Chinese hamster, 20 h, 80 μg/mL): 3.7%
dose with cytotoxicity ([2]; chromosome aberration assay, non-activated 4-h exposure): 405 µg/mL
doses with cytotoxicity ([2]; chromosome aberration assay): ≥ 70 µg/mL
doses with cytotoxicity ([2]; preliminary toxicity assay): ≥ 122 µg/mL
body temperature versus vehicle ([3]; 660 mg/kg, 1 h post-dose): significantly (p≤0.05) lower; also recorded: lower body temperature
neuropharmacological or clinical signs ([3]; 220, 440 or 660 mg/kg oral, through 24 h post-dose): No apparent neuropharmacological or clinical signs were observed
body weight and food consumption ([4]; 30, 100, 250 or 500 mg/kg): No test article-related effects
clinical signs ([4]; 30, 100, 250 or 500 mg/kg oral gavage): Loose feces and emesis were observed following most doses
mutagenic response (reverse mutations) ([5]; 100-5000 μg per plate, with and without S9): No positive mutagenic responses were observed
precipitate and toxicity ([5]; mutagenicity assay, up to 5000 μg per plate): Neither precipitate nor toxicity was observed
dose with toxicity (reduction in the revertant count) ([5]; preliminary toxicity assay, TA1537 and WP2 uvrA, absence of S9): 5000 μg per plate
effects on blood pressure, heart rate, ECG morphology, ECG measurements, body temperature ([6]; 30, 90 and 150 mg/kg oral): no effects on pulmonary function or cardio-telemetry; also recorded: did not induce any biologically relevant effects
QTc ([6]; telemetered safety pharmacology study in dogs): no prolonged QTc
clinical observations after single dose [7]: Nearly all the animals appeared normal following dosing
mortality after single doses [7]: did not result in any mortality
